Laboratory results reported in PubChem BioAssay (NCI).
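Exposure lasted 48 hours, with cells grown in 96-well plates and compounds tested at five concentrations. Abbreviation: GI50, concentration required for 50% inhibition of growth. TGI: total growth inhibition.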

Experiments:
Assay in all cases: growth of human tumour cells (NCI), 48 h
M14 melanoma = test system: M14 melanoma
HCT-116 colon = test system: HCT-116 colon
RPMI-8226 leukemia = test system: RPMI-8226 leukemia
KM12 colon = test system: KM12 colon
SK-OV-3 ovarian = test system: SK-OV-3 ovarian
SK-MEL-5 melanoma = test system: SK-MEL-5 melanoma
OVCAR-8 ovarian = test system: OVCAR-8 ovarian
LOX IMVI melanoma = test system: LOX IMVI melanoma
NCI-H522 lung = test system: NCI-H522 lung
SF-295 CNS = test system: SF-295 CNS
SK-MEL-28 melanoma = test system: SK-MEL-28 melanoma
HCC-2998 colon = test system: HCC-2998 colon
SNB-19 CNS = test system: SNB-19 CNS
OVCAR-5 ovarian = test system: OVCAR-5 ovarian
UACC-62 melanoma = test system: UACC-62 melanoma
HL-60(TB) leukemia = test system: HL-60(TB) leukemia
786-0 renal = test system: 786-0 renal
U251 CNS = test system: U251 CNS
SNB-75 CNS = test system: SNB-75 CNS
HT29 colon = test system: HT29 colon
SF-268 CNS = test system: SF-268 CNS
NCI-H460 lung = test system: NCI-H460 lung
A549 NSCLC = test system: A549 NSCLC
NCI-H226 lung = test system: NCI-H226 lung
OVCAR-3 ovarian = test system: OVCAR-3 ovarian
A498 renal = test system: A498 renal
ACHN renal = test system: ACHN renal
K-562 leukemia = test system: K-562 leukemia
MOLT-4 leukemia = test system: MOLT-4 leukemia
HCT-15 colon = test system: HCT-15 colon
EKVX NSCLC = test system: EKVX NSCLC
CAKI-1 renal = test system: CAKI-1 renal
UO-31 renal = test system: UO-31 renal
OVCAR-4 ovarian = test system: OVCAR-4 ovarian
IGROV1 ovarian = test system: IGROV1 ovarian
HOP-62 NSCLC = test system: HOP-62 NSCLC
SK-MEL-2 melanoma = test system: SK-MEL-2 melanoma
SW-620 colon = test system: SW-620 colon
KM20L2 colon = test system: KM20L2 colon
MALME-3M melanoma = test system: MALME-3M melanoma
SF-539 CNS = test system: SF-539 CNS
UACC-257 melanoma = test system: UACC-257 melanoma
SN12C renal = test system: SN12C renal
RXF 393 renal = test system: RXF 393 renal
NCI-H23 lung = test system: NCI-H23 lung
SR leukemia = test system: SR leukemia
CCRF-CEM leukemia = test system: CCRF-CEM leukemia
DLD-1 colon = test system: DLD-1 colon
COLO 205 colon = test system: COLO 205 colon
DMS 114 small cell lung = test system: DMS 114 small cell lung
HOP-18 NSCLC = test system: HOP-18 NSCLC
HOP-92 NSCLC = test system: HOP-92 NSCLC
LXFL 529 NSCLC = test system: LXFL 529 NSCLC
SNB-78 CNS = test system: SNB-78 CNS

In the case of CC(=O)[CH-]C(=O)c1ccccc1.CC(=O)[CH-]C(=O)c1ccccc1.O=S(=O)([O-])c1cc([O-])c2c([O-])cc(S(=O)(=O)[O-])cc2c1.[Na+].[Ti+4], the GI50 (M14 melanoma) is reported as over 100 µM, the TGI (M14 melanoma) is reported as over 100 µM and the GI50 (HCT-116 colon) is reported as over 100 µM. It also gave a TGI (HCT-116 colon) of over 100 µM, a GI50 (RPMI-8226 leukemia) of over 100 µM and a TGI (RPMI-8226 leukemia) of over 100 µM. For the same compound, the GI50 (KM12 colon) was 30.2 µM, the TGI (KM12 colon) was over 100 µM and the GI50 (SK-OV-3 ovarian) was over 100 µM. The TGI (SK-OV-3 ovarian) was over 100 µM, the GI50 (SK-MEL-5 melanoma) was over 100 µM and the TGI (SK-MEL-5 melanoma) was over 100 µM. For the same compound, the GI50 (OVCAR-8 ovarian) was over 100 µM, the TGI (OVCAR-8 ovarian) was over 100 µM and the GI50 (LOX IMVI melanoma) was over 100 µM. For the same compound, the TGI (LOX IMVI melanoma) was over 100 µM, the GI50 (NCI-H522 lung) was 70.7 µM and the TGI (NCI-H522 lung) was over 100 µM. The GI50 (SF-295 CNS) was 55.7 µM, the TGI (SF-295 CNS) was over 100 µM and the GI50 (SK-MEL-28 melanoma) was over 100 µM. The TGI (SK-MEL-28 melanoma) was over 100 µM, the GI50 (HCC-2998 colon) was over 100 µM and the TGI (HCC-2998 colon) was over 100 µM. The GI50 (SNB-19 CNS) was over 100 µM, the TGI (SNB-19 CNS) was over 100 µM and the GI50 (OVCAR-5 ovarian) was over 100 µM. It also gave a TGI (OVCAR-5 ovarian) of over 100 µM, a GI50 (UACC-62 melanoma) of over 100 µM and a TGI (UACC-62 melanoma) of over 100 µM. For the same compound, the GI50 (HL-60(TB) leukemia) was over 100 µM, the TGI (HL-60(TB) leukemia) was over 100 µM and the GI50 (786-0 renal) was over 100 µM. The TGI (786-0 renal) was over 100 µM, the GI50 (U251 CNS) was 97.8 µM and the TGI (U251 CNS) was over 100 µM. The GI50 (SNB-75 CNS) was 29.1 µM, the TGI (SNB-75 CNS) was 87.5 µM and the GI50 (HT29 colon) was over 100 µM. The TGI (HT29 colon) was over 100 µM, the GI50 (SF-268 CNS) was over 100 µM and the TGI (SF-268 CNS) was over 100 µM. The GI50 (NCI-H460 lung) was over 100 µM, the TGI (NCI-H460 lung) was over 100 µM and the GI50 (A549 NSCLC) was over 100 µM. It also gave a TGI (A549 NSCLC) of over 100 µM, a GI50 (NCI-H226 lung) of 47.5 µM and a TGI (NCI-H226 lung) of over 100 µM. The GI50 (OVCAR-3 ovarian) was over 100 µM, the TGI (OVCAR-3 ovarian) was over 100 µM and the GI50 (A498 renal) was over 100 µM. The TGI (A498 renal) was over 100 µM, the GI50 (ACHN renal) was over 100 µM and the TGI (ACHN renal) was over 100 µM. The GI50 (K-562 leukemia) was over 100 µM, the TGI (K-562 leukemia) was over 100 µM and the GI50 (MOLT-4 leukemia) was 34.3 µM. The TGI (MOLT-4 leukemia) was over 100 µM, the GI50 (HCT-15 colon) was over 100 µM and the TGI (HCT-15 colon) was over 100 µM. The GI50 (EKVX NSCLC) was over 100 µM, the TGI (EKVX NSCLC) was over 100 µM and the GI50 (CAKI-1 renal) was over 100 µM. It also gave a TGI (CAKI-1 renal) of over 100 µM, a GI50 (UO-31 renal) of over 100 µM and a TGI (UO-31 renal) of over 100 µM. It also gave a GI50 (OVCAR-4 ovarian) of 68.6 µM, a TGI (OVCAR-4 ovarian) of over 100 µM and a GI50 (IGROV1 ovarian) of over 100 µM. The TGI (IGROV1 ovarian) was over 100 µM, the GI50 (HOP-62 NSCLC) was over 100 µM and the TGI (HOP-62 NSCLC) was over 100 µM. It also gave a GI50 (SK-MEL-2 melanoma) of over 100 µM, a TGI (SK-MEL-2 melanoma) of over 100 µM and a GI50 (SW-620 colon) of over 100 µM. It also gave a TGI (SW-620 colon) of over 100 µM, a GI50 (KM20L2 colon) of over 100 µM and a TGI (KM20L2 colon) of over 100 µM. For the same compound, the GI50 (MALME-3M melanoma) was 84.5 µM, the TGI (MALME-3M melanoma) was over 100 µM and the GI50 (SF-539 CNS) was 83.3 µM. It also gave a TGI (SF-539 CNS) of over 100 µM, a GI50 (UACC-257 melanoma) of 77.1 µM and a TGI (UACC-257 melanoma) of over 100 µM. The GI50 (SN12C renal) was over 100 µM and the TGI (SN12C renal) was over 100 µM.

Work on COc1ccc(/C=N/N=C(\N)NO)c(OC)c1C yielded a TGI (RXF 393 renal) of 69.8 µM, a TGI (HCT-116 colon) of over 100 µM and a TGI (RPMI-8226 leukemia) of over 100 µM. For the same compound, the TGI (KM12 colon) was over 100 µM, the TGI (SK-OV-3 ovarian) was over 100 µM and the TGI (OVCAR-8 ovarian) was over 100 µM. For the same compound, the TGI (LOX IMVI melanoma) was over 100 µM, the TGI (NCI-H522 lung) was 26.4 µM and the TGI (SF-295 CNS) was over 100 µM. The TGI (SK-MEL-28 melanoma) was over 100 µM, the TGI (NCI-H23 lung) was 60.6 µM and the TGI (HCC-2998 colon) was 22.1 µM. The TGI (SNB-19 CNS) was over 100 µM, the TGI (OVCAR-5 ovarian) was 7.69 µM and the TGI (UACC-62 melanoma) was over 100 µM. It also gave a TGI (786-0 renal) of 67.7 µM, a TGI (SR leukemia) of over 100 µM and a TGI (U251 CNS) of over 100 µM. The TGI (CCRF-CEM leukemia) was over 100 µM, the TGI (HT29 colon) was over 100 µM and the TGI (SF-268 CNS) was over 100 µM. The TGI (NCI-H460 lung) was over 100 µM, the TGI (A549 NSCLC) was 44.9 µM and the TGI (NCI-H226 lung) was 49.5 µM. It also gave a TGI (OVCAR-3 ovarian) of over 100 µM, a TGI (A498 renal) of 87.6 µM and a TGI (DLD-1 colon) of over 100 µM. The TGI (ACHN renal) was 43.1 µM, the TGI (K-562 leukemia) was over 100 µM and the TGI (MOLT-4 leukemia) was over 100 µM. For the same compound, the TGI (HCT-15 colon) was over 100 µM, the TGI (EKVX NSCLC) was 41.9 µM and the TGI (COLO 205 colon) was 30.7 µM. The TGI (CAKI-1 renal) was 46.4 µM, the TGI (UO-31 renal) was 31.7 µM and the TGI (DMS 114 small cell lung) was 71.9 µM. For the same compound, the TGI (OVCAR-4 ovarian) was over 100 µM, the TGI (HOP-18 NSCLC) was 60.6 µM and the TGI (IGROV1 ovarian) was over 100 µM. For the same compound, the TGI (HOP-62 NSCLC) was 36.7 µM, the TGI (SK-MEL-2 melanoma) was 70.6 µM and the TGI (SW-620 colon) was over 100 µM. It also gave a TGI (MALME-3M melanoma) of 35.2 µM, a TGI (SF-539 CNS) of 54.1 µM and a TGI (UACC-257 melanoma) of over 100 µM. It also gave a TGI (HOP-92 NSCLC) of 72.5 µM, a TGI (LXFL 529 NSCLC) of over 100 µM and a TGI (SNB-78 CNS) of over 100 µM. The TGI (SN12C renal) was over 100 µM.
